Measurements published in US20150238466A1, “LIM KINASE INHIBITORS” (RAMOT AT TEL-AVIV UNIVERSITY LTD., priority 2012, published 2015).
Values joined by “and” are separate entries in the source; they are usually repeats but may differ in a detail not shown here. Equal values may be shown once.

Columns and labels:
LIMK = assay: Western blot of p-cofilin in NF1−/− MEFs; format: cell-based, mouse
Procedure: FIG. 3A-B presents an immunoblot and graphical presentation of immunoblots. […] Normalization was performed using beta-tubulin. Average inhibition was calculated as a percentage of control (mean±SD, n=3,*P<0.05; **P<0.01 compared to control (Student's t-test)).
NF1−/− MEFs were plated at a density of lx 10^5 or 5×10^5 cells in 6-well plates or 10-cm dishes, respectively, and were allowed to grow overnight in a medium containing 10% FCS. […] The cells were then lysed with solubilization buffer (50 mMTris-HCl at a pH of 7.6, 20 mM MgCl2, 200 mM NaCl, 0.5% NP40, 1 mM Dithiothreitol, and protease inhibitors), and the lysate (50 μg) was subjected to SDS-PAGE and then immunoblotted with one of the following antibodies: anti-p-cofilin (1:1000), anti-cofilin (1:1000), anti-β-tubulin (1:500). The immunoblots were then exposed to peroxidase-goat anti-rabbit IgG (1:2500), and protein bands were visualized by enhanced chemiluminescence and quantified by densitometry (EZ-Qant). Rabbit anti-cofilin and p-cofilin (Ser3) were from Cell Signaling Technolgy (Beverly, Mass.); mouse anti-β-tubulin antibody was from Sigma-Aldrich; peroxidase-goat anti-mouse IgG and peroxidase-goat anti-rabbit IgG were from Jackson ImmunoResearch Laboratories (West Grove, Pa.).
It has been previously shown that the levels of phosphorylated cofilin (p-cofilin) are high in NF1^−/− Mouse Embryonic Fibroblasts (MEFs). Thus, these cells were used herein to examine the impact of compound 1 on phosphorylation of cofilin.
The cells were lysed and subjected to immunoblotting with anti-p-cofilin, anti-cofilin, and anti-β-tubulin (as loading control) antibodies. […] These findings, taken together, support the predicted LIMK model as well as the predicted LIMK inhibitor.

NF1−/− MEFs [1] = assay: Actin stress fibers, rhodamine-phalloidin staining of NF1−/− MEFs; format: cell-based, mouse
Procedure: MEFs were seeded on glass coverslips in 6-well plates at the densities of 2.5×10^4 cells per well. […] Cells were further incubated for 24 hours and were then fixed, permeabilized, and washed. Rhodamine-labeled phalloidin was added for 30 minutes and the slides were then washed, mounted, and imaged. F-actin was visualized and then photographed under an LSM510 confocal microscope (×63 objective) fitted with rhodamine filters. Statistical analysis was performed by counting 100 cells from each slide, with or without stress fibers, under an Olympus fluorescence microscope.

NF1−/− MEFs [2] = assay: Growth (cell number) of NF1−/− MEFs, direct counting after 5 days; format: cell-based, mouse; details: for inhibition at 5 µM / inhibition at 25 µM: Mus musculus
Procedure: Cells were directly counted and typical inhibition curves are shown (means±SEM, n=9; **P<0.01, ***P<0.001).
The cells were plated in 24-well plates at a density of 5×10^3 cells per well.

Panc-1 tumor = assay: Panc-1 human pancreatic tumor growth in nude mice; format: in vivo, mouse; details: for average tumor size: control group 745
Excerpt: FIG. 11A—Panc-1 cells were implanted s.c. in the right flank of athymic nude mice. After 7 days, the mice were separated randomly into one vehicle-treated control group and two T-56-LIMKi groups (n=8). […] Tumor volumes (means±S.E.M, * p-value<0.05) during the experiment period are shown. FIG. 11B—The mice were weighted at indicated time point. Presented are average weights of each group (grams±stdev).
Nude CD1-Nu mice (6 weeks old) were housed in barrier facilities on a 12-h light/dark cycle. Food and water were supplied ad libitum. On day zero, 5×10^6 Panc-1 cells in 0.1 ml of PBS were implanted s.c. just above the right femoral joint When tumor volumes reached values of 0.06-0.07 cm3 (day 0 of compound-1 treatment), the mice were randomly separated into three groups. Control mice received vehicle; compound-1-treated mice received 30 or 60 mg/kg T56-LIMKi (oral administration of 0.1 ml with 0.5% CMC daily). Tumor volume was calculated as (length×width)×[(length+width)÷2].
The effects of compound ion human pancreatic tumor growth in nude mice was examined, i.e., on cell transformation in an in vivo model. Mice received 5×10^6 cells subcutaneously (s.c.) in the right flank. […] By day 31, 4 out of 8 tumors in the 60 mg/kg treated group disappeared completely.

ST-88-swanoma = assay: Growth inhibition of ST-88 cells; format: cell-based; details: 120 h; ST-88, 5 days; read-out: IC50, reduction of cell number
Excerpt: (§1) Cells were directly counted and typical inhibition curves are shown.

[3] = tested on: Panc-1-pancreatic cancer tumor cell line; assay: Growth inhibition of Panc-1 cells; format: cell-based; details: Homo sapiens, 120 h; Panc-1, 5 days; read-out: IC50, reduction of cell number
Excerpt: as §1

U87-glioblastoma = assay: Growth inhibition of U87 cells; format: cell-based; details: Homo sapiens, U-87 MG, 120 h; U87, 5 days; read-out: IC50, reduction of cell number
Excerpt: as §1

[4] = In-vivo toxicity, single oral dose in nude mice; details: single oral dose 20-100 mg/kg in 0.5% CMC, followed for 2 weeks
Excerpt: The mice were weighted and followed for 14 days after the administration. Average weight of treated mice is presented. (n=2).
The mice were followed for 2 weeks to measure toxic effects.

NF1−/− MEFs [5] = assay: Anchorage-independent growth in soft agar; format: cell-based, mouse; details: 25 and 50 μM, 14 days
Procedure: FIG. 7B is a graph showing a statistical analysis of the anchorage-independent growth experiment. Columns, mean (n=5); bars, SD; *P<0.001.
Noble agar 2% (Difco, Detroit, Mich.) was mixed with DMEM×2 medium, containing 10% FCS, 4 mM L-glutamine, 200 units/mL penicillin, and 0.2 mg/mL streptomycin. The mixture (50 μL) was poured into 96-well plates to provide the agar base at a final agar concentration of 1%. […] The cells were incubated for 14 days and then stained for 4 hours with 1 mg/mL 344,5-dimethylthiazol-2-yl)-2 5-diphenyltetrazolium bromide (MTT; Sigma-Aldrich, St. Louis, Mo.), which stains active mitochondria in living cells, and the colonies were imaged. Colonies larger than 0.16 mm^2 (mean±SD, n=5) were counted using Image-Pro Plus software (Media Cybernetics, Carlsbad, Calif.). The average percentage of colonies in each group (means±SD, n=5) was calculated by dividing the number of colonies of a particular treatment and specific group size by the number of colonies of the same size in the corresponding untreated control group.

NF1−/− MEFs [6] = assay: Scratch-induced (wound-healing) migration assay, NF1−/− MEFs; format: cell-based, mouse; details: within 3 hours, compound 1 at 50 μM; untreated cells 50%
Procedure: (§2) FIG. 6 is a graph showing gap width in NF1−/− MEFs cells examined (mean±SD, n=9), expressed as a percentage of the gap at the time of scratching.
(§3) Scratch-induced migration assay was performed as described in Goldberg et al.. Briefly, NF1-knockout and wt MEFs were seeded on collagen-covered 35-mm plates at a cell density of 1.5×10^5 per plate. […] Three areas were scratched in each plate, creating three gaps of similar widths. The media and the inhibitors were then replenished. Immediately thereafter, and at the time points indicated in the Examples section, phase-contrast images of the plates were obtained with a CCD camera connected to an Olympus fluorescence microscope (×10 objective). The region imaged was marked at time “zero” in order to enable photographing the same area at the different time points, and so that a specific population of migrating cells may be examined. The widths of the gaps treated with the inhibitor were measured at different time points, using the Image-Pro Plus software. […] Statistical analysis of the results was performed, of either the mean gap width (in arbitrary units) of compound 1-treated cells relative to the control at different time points (means±SD, n=9) or the percentage of migration, calculated as the width of the gap still open at the final time point, expressed as a percentage of the gap size at zero time for each treatment (means±SD, n=9). […]

wt MEFs = assay: Scratch-induced (wound-healing) migration assay, wt MEFs; format: cell-based, mouse; details: compound 1 at 50 μM
Procedure: as §2, §3

Structure (SMILES): CC(C)C(=O)Nc1ncc(-c2cc(C(F)F)nn2-c2c(Cl)cccc2Cl)s1 [BMS-5, N-{5-(2-(2,6-dichloro-phenyl)-5-difluoromethyl-2H-pyrazol-3-yl)-thiazol-2-yl}-isobutyramide, reference compound]
- reduction of p-cofilin level, potency compared with compound 1 (LIMK; similar experiment, 2 hours, NF1−/− MEFs): more potent than compound 1

Structure (SMILES): CC(C)=CCC/C(C)=C/CC/C(C)=C/CSc1ccccc1C(=O)O [FTS, S-trans, trans-farnesyl thiosalicyclic acid, reference compound]
- decrease in stress fiber formation (NF1−/− MEFs [1]; FTS alone): 20%±5.6%
- growth inhibition (NF1−/− MEFs [2]; FTS alone (zero compound 1)): 33%±1.6%

Structure (SMILES): Cc1cc(C(=O)Nc2cccc(C(=O)Nc3cccc(C(F)(F)F)c3)c2)on1 [compound 1]
- significance of the reduction of tumor volume (Panc-1 tumor; 60 mg/kg daily oral): significant from day 18
- mouse weight (Panc-1 tumor; 30 or 60 mg/kg daily oral): not affected
- signs of cytotoxicity (Panc-1 tumor; 30 or 60 mg/kg daily oral): no signs of cytotoxicity
- average tumor size (Panc-1 tumor; Day 22, 30 mg/kg daily oral): 488 mm^3
- average tumor size (Panc-1 tumor; Day 22, 60 mg/kg daily oral): 268 mm^3
- tumors that disappeared completely (Panc-1 tumor; by day 31, 60 mg/kg daily oral): 4 out of 8
- IC50 (ST-88-swanoma): ~25 µM
- IC50 [3]: ~25 µM
- IC50 (U87-glioblastoma): ~25 µM
- decrease in the number of cells exhibiting stress fibers (NF1−/− MEFs [1]; compound 1 at 50 μM): 26%±7.7% and 30%
- body weight [4]: no weight lost was detected
- toxic effects (appearance of mice) [4]: looked normal at all doses
- toxic effects (appearance of mice) ([4]; listed as T56-LIMKi): not toxic
- colony formation in soft agar (NF1−/− MEFs [5]): inhibited in a dose-dependent manner
- gap closed (NF1−/− MEFs [6]): 10%
- inhibition of cofilin phosphorylation by LIMK (LIMK; 50 μM): about 50%
- amounts of total cofilin (LIMK; 2 hours, NF1−/− MEFs): did not affect
- level of p-cofilin (LIMK; compound 1 at 10-50 μM, 2 hours, serum-starved NF1−/− MEFs): reduced
- mobility of wt MEFs (wt MEFs): not affected
- inhibition at 5 µM (NF1−/− MEFs [2]; compound 1 at 5 μM in the absence of FTS): 13%
- inhibition at 5 µM (NF1−/− MEFs [2]; compound 1 at 5 μM in the presence of FTS): 60%
- inhibition at 25 µM (NF1−/− MEFs [2]; compound 1 at 25 μM in the absence of FTS): 51%
- inhibition at 25 µM (NF1−/− MEFs [2]; compound 1 at 25 μM in the presence of FTS): 85.5%
- reduction in cell proliferation (NF1−/− MEFs [2]; compound 1 at 50 μM): 70%
